{
  "source": "patent US20060275250A1",
  "about": "“Reactive polymers and copolymers, method of their preparation and their use” (priority 2003, published 2006)",
  "molecules": {"B1": {"name": "star-like poly(HMPA)—RNase A conjugate (conjugate, UniProt P61823 27-150, looked up)", "Ribonuclease pancreatic": "KETAAAKFERQHMDSSTSAASSSNYCNQMMKSRNLTKDRCKPVNTFVHESLADVQAVCSQKNVACKNGQTNCYQSYSTMSITDCRETGSSKYPNCAYKTTQANKHIIVACEGNPYVPVHFDASV", "modifications": "star-like poly(HPMA) polymer conjugate"}},
  "key": {"[1]": {"system": "ConA-stimulated mouse T-splenocytes", "experiment": "In vitro cytotoxicity, [3H]thymidine incorporation, ConA-stimulated mouse T-splenocytes", "type": "cell-based", "settings": "Splenocyte, 50% decrease in proliferation", "protocol": "(§1) In vitro cytotoxicity tests were performed by a standard method on ConA-stimulated and nonstimulated mouse T-splenocytes and on a tumour line of mouse T-cell lymphom EL-4. Cytotoxicity was followed by a change of incorporation of [^3H]thymidine into cells incubated in a medium containing the tested sample in various concentrations. The cytotoxicity was expressed by the IC50 factor (the substance concentration at which a 50% decrease in proliferation of tested cells is observed)."}, "[2]": {"system": "mouse T-cell lymphom EL-4", "experiment": "In vitro cytotoxicity, [3H]thymidine incorporation, EL-4 tumour line", "type": "cell-based", "settings": "mouse T-cell lymphoma EL-4 line, 50% decrease in proliferation", "protocol": "as §1"}, "[3]": {"settings": "clinical testing; cumulative dose reached 1680 mg/m^2; cited from earlier work"}, "human melanoma": {"system": "human melanoma", "experiment": "Treatment of human melanoma in nu-nu mice", "type": "in vivo", "settings": "compared with the conjugate from ONp or Su reactive polymer, FIG. 3", "excerpt": "The properties of the conjugate were compared with those of the conjugate prepared from the classic ONp reactive polymer. […] The synthesis using the reactive polymer according to the invention proceeded faster, a polymer with a smaller content of reactive groups (2 mol %) could be used for obtaining the same product, and in the resulting conjugate no unmodified protein or unreacted polymer was present (the conversion of the reaction of reactive groups was higher).\nA star-like poly(HMPA)—RNase A conjugate was prepared from a semitelechelic polymer prepared according to Example 3 by the same procedure as in the synthesis starting from poly(HPMA) with succinimidyl end group. The star conjugate was purified from low-molecular-weight materials by preparative gel chromatography (Sephacryl S300, column 26×600 mm, flow-rate 12.5 ml/h, distilled water). After concentration using an ultrafiltration membrane (PM 30), the product was lyophilized. Comparing the conjugate syntheses using polymers with OSu and TT reactive groups, the latter led to higher reaction yields and much smaller amounts of unreacted (hydrolyzed) polymer in the reaction mixture."}},
  "data": [
    {"molecule": "COc1cccc2c1C(=O)c1c(O)c3c(c(O)c1C2=O)C[C@@](O)(C(=O)CO)C[C@@H]3O[C@H]1C[C@H](N)[C@H](O)[C@H](C)O1", "note": "[Dox, doxorubicin]", "values": [
      {"measurement": "IC50", "setting": "[1]", "result": 0.07, "unit": "mg/L"},
      {"measurement": "IC50", "setting": "[2]", "result": 0.03, "unit": "mg/L"}
    ]},
    {"molecule": "N-(2-hydroxypropyl)methacrylamide copolymer doxorubicin [PK1]", "values": [
      {"measurement": "changes in cardial functions", "setting": "[3]", "result": "no serious changes in cardial functions were observed"}
    ]},
    {"molecule": "B1", "values": [
      {"measurement": "biological properties / in vivo activity in the treatment of human melanoma", "setting": "human melanoma", "result": "active under in vivo conditions equally well as the conjugate prepared from reactive Su ester"}
    ]}
  ]
}
